Test results: US20230085307A1, “PYRIDAZINONE COMPOUND AND HERBICIDE” (NISSAN CHEMICAL CORPORATION, priority 2019, published 2023)

How the values were obtained:
[1] = tested on: blackgrass; assay: Test Example 4: herbicidal effect by soil treatment (Table 19, symbol J); type: in vivo, blackgrass (Alopecurus myosuroides)
Outline: (§1)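 Seeds were sown in sterilized diluvial soil and covered with about 1.5 cm of soil. An emulsion formulation diluted with water to a predetermined herbicide amount was sprayed evenly onto the soil surface. Plants grew in a greenhouse at 25° C. to 30° C., and the effect was scored three weeks after application using criteria from an earlier test.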

[2] = tested on: persian speedwell; assay: Test Example 5: herbicidal effect by foliage application, plastic box (Table 20, symbol R); type: in vivo, Persian speedwell (Veronica persica); details: foliage application, evaluated three weeks after application
Outline: (§2)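 Plants sown in sterilized diluvial soil and grown 14 days in a greenhouse at 25° C to 30° C, then sprayed on the foliage with the compound's emulsion diluted in water to a predetermined herbicide amount. Injury to weeds and crops scored three weeks after application on a visual rating scale.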

[3] = tested on: Italian ryegrass; assay: Test Example 5: herbicidal effect by foliage application, plastic box (Table 20, symbol K); type: in vivo, Italian ryegrass (Lolium multiflorum); details: foliage application, evaluated three weeks after application
Outline: as §2

[4] = tested on: chickweed; assay: Test Example 5: herbicidal effect by foliage application, plastic box (Table 20, symbol P); type: in vivo, common chickweed (Stellaria media); details: foliage application, evaluated three weeks after application
Outline: as §2

[5] = tested on: barnyard grass; assay: Test Example 3: herbicidal effect by foliage application, Wagner pot (Table 18, symbol H); type: in vivo, barnyard grass (Echinochloa crus-galli)
Outline: (§3)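 Plants were sown in alluvial soil held under 0.1–0.5 cm standing water and grown 14 days in a greenhouse at 25–30 °C. An emulsifiable formulation, water-diluted to the set dose, was then sprayed onto the foliage, and effects were scored three weeks later using previously defined criteria.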

[6] = tested on: wild oat; assay: Test Example 5: herbicidal effect by foliage application, plastic box (Table 20, symbol I); type: in vivo, wild oat (Avena fatua); details: foliage application, evaluated three weeks after application
Outline: as §2

[7] = tested on: southern crabgrass; assay: Test Example 5: herbicidal effect by foliage application, plastic box (Table 20, symbol F); type: in vivo, southern crabgrass (Digitaria ciliaris); details: foliage application, evaluated three weeks after application
Outline: as §2

[8] = tested on: green foxtail; assay: Test Example 4: herbicidal effect by soil treatment (Table 19, symbol G); type: in vivo, green foxtail (Setaria viridis)
Outline: as §1

[9] = tested on: green foxtail; assay: Test Example 5: herbicidal effect by foliage application, plastic box (Table 20, symbol G); type: in vivo, green foxtail (Setaria viridis); details: foliage application, evaluated three weeks after application
Outline: as §2

[10] = tested on: southern crabgrass; assay: Test Example 4: herbicidal effect by soil treatment (Table 19, symbol F); type: in vivo, southern crabgrass (Digitaria ciliaris)
Outline: as §1

[11] = tested on: barnyard grass; assay: Test Example 4: herbicidal effect by soil treatment (Table 19, symbol H); type: in vivo, barnyard grass (Echinochloa crus-galli)
Outline: as §1

[12] = tested on: redroot pigweed; assay: Test Example 4: herbicidal effect by soil treatment (Table 19, symbol N); type: in vivo, redroot pigweed (Amaranthus retroflexus)
Outline: as §1

[13] = tested on: chickweed; assay: Test Example 4: herbicidal effect by soil treatment (Table 19, symbol P); type: in vivo, common chickweed (Stellaria media)
Outline: as §1

[14] = tested on: redroot pigweed; assay: Test Example 5: herbicidal effect by foliage application, plastic box (Table 20, symbol N); type: in vivo, redroot pigweed (Amaranthus retroflexus); details: foliage application, evaluated three weeks after application
Outline: as §2

[15] = tested on: rice flat sedge; assay: Test Example 3: herbicidal effect by foliage application, Wagner pot (Table 18, symbol E); type: in vivo, rice flat sedge (Cyperus iria)
Outline: as §3

[16] = tested on: persian speedwell; assay: Test Example 4: herbicidal effect by soil treatment (Table 19, symbol R); type: in vivo, Persian speedwell (Veronica persica)
Outline: as §1

[17] = tested on: barnyard grass; assay: Test Example 5: herbicidal effect by foliage application, plastic box (Table 20, symbol H); type: in vivo, barnyard grass (Echinochloa crus-galli); details: foliage application, evaluated three weeks after application
Outline: as §2

[18] = tested on: lambsquarters; assay: Test Example 5: herbicidal effect by foliage application, plastic box (Table 20, symbol O); type: in vivo, lambsquarters (Chenopodium album); details: foliage application, evaluated three weeks after application
Outline: as §2

[19] = tested on: lambsquarters; assay: Test Example 4: herbicidal effect by soil treatment (Table 19, symbol O); type: in vivo, lambsquarters (Chenopodium album)
Outline: as §1

[20] = tested on: Chinese sprangletop; assay: Test Example 3: herbicidal effect by foliage application, Wagner pot (Table 18, symbol D); type: in vivo, chinese sprangletop (Leptochloa chinensis)
Outline: as §3

[21] = tested on: windgrass; assay: Test Example 4: herbicidal effect by soil treatment (Table 19, symbol L); type: in vivo, windgrass (Apera spica-venti)
Outline: as §1

[22] = tested on: windgrass; assay: Test Example 5: herbicidal effect by foliage application, plastic box (Table 20, symbol L); type: in vivo, windgrass (Apera spica-venti); details: foliage application, evaluated three weeks after application
Outline: as §2

[23] = tested on: blackgrass; assay: Test Example 5: herbicidal effect by foliage application, plastic box (Table 20, symbol J); type: in vivo, blackgrass (Alopecurus myosuroides); details: foliage application, evaluated three weeks after application
Outline: as §2

[24] = tested on: velvetleaf; assay: Test Example 4: herbicidal effect by soil treatment (Table 19, symbol M); type: in vivo, velvetleaf (Abutilon theophrasti)
Outline: as §1

[25] = tested on: wild oat; assay: Test Example 4: herbicidal effect by soil treatment (Table 19, symbol I); type: in vivo, wild oat (Avena fatua)
Outline: as §1

[26] = tested on: Italian ryegrass; assay: Test Example 4: herbicidal effect by soil treatment (Table 19, symbol K); type: in vivo, Italian ryegrass (Lolium multiflorum)
Outline: as §1

[27] = tested on: velvetleaf; assay: Test Example 5: herbicidal effect by foliage application, plastic box (Table 20, symbol M); type: in vivo, velvetleaf (Abutilon theophrasti); details: foliage application, evaluated three weeks after application
Outline: as §2

[28] = amount of applied herbicide 320 g/ha

CON=C(C)COc1ccc(-c2sc3ccc(F)cc3c2-c2c(O)c(C)nn(C)c2=O)cc1 [2-069]
herbicidal effect rating, J: blackgrass ([1]; 320 g/ha): 0 (Herbicidal rate of 5% or less (almost no effect))
herbicidal effect on R: persian speedwell ([2]; 320 g/ha): 5 (Herbicidal rate of 90% or more (almost completely withered))
herbicidal effect on K: Italian ryegrass ([3]; 320 g/ha): 5 (Herbicidal rate of 90% or more (almost completely withered))
herbicidal effect on P: chickweed ([4]; 320 g/ha): 5 (Herbicidal rate of 90% or more (almost completely withered))
herbicidal effect on H (barnyard grass), rating 0-5 ([5]; 320 g/ha): 5 (Herbicidal rate of 90% or more (almost completely withered))
herbicidal effect on I: wild oat ([6]; 320 g/ha): 2 (Herbicidal rate of 20% or more and less than 40%)
herbicidal effect on F: southern crabgrass ([7]; 320 g/ha): 5 (Herbicidal rate of 90% or more (almost completely withered))
herbicidal effect rating, G: green foxtail ([8]; 320 g/ha): 5 (Herbicidal rate of 90% or more (almost completely withered))
herbicidal effect on G: green foxtail ([9]; 320 g/ha): 5 (Herbicidal rate of 90% or more (almost completely withered))
herbicidal effect rating, F: southern crabgrass ([10]; 320 g/ha): 5 (Herbicidal rate of 90% or more (almost completely withered))
herbicidal effect rating, H: barnyard grass ([11]; 320 g/ha): 5 (Herbicidal rate of 90% or more (almost completely withered))
herbicidal effect rating, N: redroot pigweed ([12]; 320 g/ha): 5 (Herbicidal rate of 90% or more (almost completely withered))
herbicidal effect rating, P: chickweed ([13]; 320 g/ha): 4 (Herbicidal rate of 70% or more and less than 90%)
herbicidal effect on N: redroot pigweed ([14]; 320 g/ha): 5 (Herbicidal rate of 90% or more (almost completely withered))
herbicidal effect on E (rice flat sedge), rating 0-5 ([15]; 320 g/ha): 5 (Herbicidal rate of 90% or more (almost completely withered))
herbicidal effect rating, R: persian speedwell ([16]; 320 g/ha): 5 (Herbicidal rate of 90% or more (almost completely withered))
herbicidal effect on H: barnyard grass ([17]; 320 g/ha): 5 (Herbicidal rate of 90% or more (almost completely withered))
herbicidal effect on O: lambsquarters ([18]; 320 g/ha): 5 (Herbicidal rate of 90% or more (almost completely withered))
herbicidal effect rating, O: lambsquarters ([19]; 320 g/ha): 5 (Herbicidal rate of 90% or more (almost completely withered))
herbicidal effect on D (Chinese sprangletop), rating 0-5 ([20]; 320 g/ha): 4 (Herbicidal rate of 70% or more and less than 90%)
herbicidal effect rating, L: windgrass ([21]; 320 g/ha): 0 (Herbicidal rate of 5% or less (almost no effect))
herbicidal effect on L: windgrass ([22]; 320 g/ha): 5 (Herbicidal rate of 90% or more (almost completely withered))
herbicidal effect on J: blackgrass ([23]; 320 g/ha): 5 (Herbicidal rate of 90% or more (almost completely withered))
herbicidal effect rating, M: velvetleaf ([24]; 320 g/ha): 3 (Herbicidal rate of 40% or more and less than 70%)
herbicidal effect rating, I: wild oat ([25]; 320 g/ha): 0 (Herbicidal rate of 5% or less (almost no effect))
herbicidal effect rating, K: Italian ryegrass ([26]; 320 g/ha): 5 (Herbicidal rate of 90% or more (almost completely withered))
herbicidal effect on M: velvetleaf ([27]; 320 g/ha): 5 (Herbicidal rate of 90% or more (almost completely withered))

CCCC(=O)Oc1c(C)nn(C)c(=O)c1-c1c(-c2ccc(F)cc2F)sc2ccc(F)cc12 [2-343]
herbicidal effect on J: blackgrass [1, 28]: 2 (Herbicidal rate of 20% or more and less than 40%)
R: persian speedwell, herbicidal effect (criteria 0-5) ([2]; AAH 320 g/ha): 5 (Herbicidal rate of 90% or more (almost completely withered))
K: Italian ryegrass, herbicidal effect (criteria 0-5) ([3]; AAH 320 g/ha): 5 (Herbicidal rate of 90% or more (almost completely withered))
P: chickweed, herbicidal effect (criteria 0-5) ([4]; AAH 320 g/ha): 5 (Herbicidal rate of 90% or more (almost completely withered))
herbicidal effect on H: barnyard grass [5, 28]: 5 (Herbicidal rate of 90% or more (almost completely withered))
I: wild oat, herbicidal effect (criteria 0-5) ([6]; AAH 320 g/ha): 3 (Herbicidal rate of 40% or more and less than 70%)
F: southern crabgrass, herbicidal effect (criteria 0-5) ([7]; AAH 320 g/ha): 5 (Herbicidal rate of 90% or more (almost completely withered))
herbicidal effect on G: green foxtail [8, 28]: 4 (Herbicidal rate of 70% or more and less than 90%)
G: green foxtail, herbicidal effect (criteria 0-5) ([9]; AAH 320 g/ha): 5 (Herbicidal rate of 90% or more (almost completely withered))
herbicidal effect on F: southern crabgrass [10, 28]: 3 (Herbicidal rate of 40% or more and less than 70%)
herbicidal effect on H: barnyard grass [11, 28]: 3 (Herbicidal rate of 40% or more and less than 70%)
herbicidal effect on N: redroot pigweed [12, 28]: 3 (Herbicidal rate of 40% or more and less than 70%)
herbicidal effect on P: chickweed [13, 28]: 3 (Herbicidal rate of 40% or more and less than 70%)
N: redroot pigweed, herbicidal effect (criteria 0-5) ([14]; AAH 320 g/ha): 5 (Herbicidal rate of 90% or more (almost completely withered))
herbicidal effect on E: rice flat sedge [15, 28]: 4 (Herbicidal rate of 70% or more and less than 90%)
herbicidal effect on R: persian speedwell [16, 28]: 5 (Herbicidal rate of 90% or more (almost completely withered))
H: barnyard grass, herbicidal effect (criteria 0-5) ([17]; AAH 320 g/ha): 3 (Herbicidal rate of 40% or more and less than 70%)
O: lambsquarters, herbicidal effect (criteria 0-5) ([18]; AAH 320 g/ha): 4 (Herbicidal rate of 70% or more and less than 90%)
herbicidal effect on O: lambsquarters [19, 28]: 2 (Herbicidal rate of 20% or more and less than 40%)
herbicidal effect on D: Chinese sprangletop [20, 28]: 5 (Herbicidal rate of 90% or more (almost completely withered))
herbicidal effect on L: windgrass [21, 28]: 3 (Herbicidal rate of 40% or more and less than 70%)
L: windgrass, herbicidal effect (criteria 0-5) ([22]; AAH 320 g/ha): 5 (Herbicidal rate of 90% or more (almost completely withered))
J: blackgrass, herbicidal effect (criteria 0-5) ([23]; AAH 320 g/ha): 4 (Herbicidal rate of 70% or more and less than 90%)
herbicidal effect on M: velvetleaf [24, 28]: 3 (Herbicidal rate of 40% or more and less than 70%)
herbicidal effect on I: wild oat [25, 28]: 2 (Herbicidal rate of 20% or more and less than 40%)
herbicidal effect on K: Italian ryegrass [26, 28]: 5 (Herbicidal rate of 90% or more (almost completely withered))
M: velvetleaf, herbicidal effect (criteria 0-5) ([27]; AAH 320 g/ha): 5 (Herbicidal rate of 90% or more (almost completely withered))
